Assay results from PubChem BioAssay AID2060356 (Molecular Pharmacology Branch, DTP, NCI, 2025).

Test system: PDC tumor spheroids with HUVEC/MSC, viability
Assay: Anticancer human tumor 439559-082-T-J2-PDC patient-derived colon adenocarcinoma cell line growth inhibition [TAK]
Conditions: for IC50: curve of first compound; for viability, T/C: stronger effect = lower value; active = viability on the fitted dose curve at most 10% of control; inactive = the rest
Source text: Combinatorial screen of targeted agents with TAK-243 and ipatasertib in multi-cell type tumor spheroids
A high-throughput screen of multi-cell type tumor spheroids was designed to identify active combinations of targeted small molecules and TAK-243 or ipatasertib. Complex spheroids include a stromal component modeled by human endothelial cells (HUVEC) and fibroblasts modeled by human mesenchymal stem cells (MSCs). The concentration ranges selected for each drug and investigational agent were based upon clinically achievable concentrations if the clinical Cmax of the agent was known.
Compounds. The drugs and investigational agents: TAK-243 (785004), ipatasertib (767898), everolimus (733504), selumetinib (741078), bortezomib (756655), trametinib (758246), ixazomib (758254), vemurafenib (761431), dabrafenib (764134), sapanisertib (764658), alpelisib (765974), and copanlisib (816437), were obtained from the National Cancer Institute (NCI) Developmental Therapeutics Program Chemical Repository. The FDA-approved anticancer drug set is available from the NCI Developmental Therapeutics Program. […] The stock solutions were prepared in dimethyl sulfoxide (DMSO, Sigma-Aldrich, St. Louis, MO, cat. D2650) at 800-fold the tested concentration and stored at -70 degrees C prior to their use. All drugs and investigational agents were tested over a range starting from a high concentration at or near the clinical Cmax and decreasing in half-log increments. If the clinical Cmax for an agent had not been determined, the highest concentration tested was 10 microM.
NCI60 Cell Culture. NCI60 cell lines were obtained from the NCI Developmental Therapeutics Program Tumor Repository. For each lot of cells, the Repository performed Applied Biosystems AmpFLSTR Identifiler testing with PCR amplification to confirm consistency with the published Identifier STR profile for each cell line. Cells were kept in continuous culture for no more than 20 passages. The optimal seeding densities for each of the cell lines at each time point assessed were determined prior to performing the concentration response studies. Briefly, the NCI60 human tumor lines were grown as monolayers in RPMI 1640 medium supplemented with 10% FBS and 2 mmol/L L-glutamine.
An additional 2 lines were from the NCI60 cell line panel including melanomas, MALME-3M and SK-MEL-2. Pooled donor human umbilical vein endothelial cells (HUVEC, Lonza, cat. CC-2519) and human mesenchymal stem cells (hMSC, Lonza, cat. PT-2501) were purchased from Lonza (Walkersville, MD).
PDMR cell lines were grown in complete medium (DC medium): Dulbecco's modified Eagle's medium (DMEM)/F12 supplemented with 5% fetal bovine serum (FBS), 2 mM L-glutamine, 100 U/mL penicillin and 100 µg/ml streptomycin, 0.4 µg/ml hydrocortisone, 10 ng/ml epidermal growth factor (EGF) recombinant human protein, 24 µg/mL adenine, and 0.1 mg/mL primocin. During culture from frozen stock vials, PDMR cells were cultured in the same medium containing 10 µM Y-27632 (see Table 3). The PDCs were cultured in complete DMEM/F12 media without 10 microM Y-27632 dihydrochloride for at least two passages prior to the screen. The pooled donor HUVEC and hMSC were cultured in endothelial cell growth medium 2 (PromoCell, Heidelberg, Germany, cat. C-22011) and mesenchymal stem cell growth medium 2 (PromoCell, cat. C-28009), respectively. For all experiments, HUVEC and hMSC were used at passages </=5.
For the pre-screen, cell seeding densities were determined from a titration spanning the range from 5,000 to 313 cells per well. The mct-spheroids including 60% malignant cells, 25% HUVEC and 15% MSC dispensed as a mixture into U-bottom Ultra-Low Attachment 384-well plates (Corning, NY)
High-throughput Drug Combination Screening.
Prior to their inoculation into 384-well plates, malignant cells, HUVEC, and hMSC were removed from T flasks using TrypLE express (Thermo Fisher Scientific, cat. 12605036) and harvested by centrifugation for 5 min at 233 x g. […]

[1] = second compound 0.3 µM, first compound 0.0316 µM
[2] = second compound 0.3 µM, first compound 0.1 µM
[3] = second compound 0.949 µM, first compound 0.0316 µM
[4] = second compound 0.949 µM, first compound 0.1 µM
[5] = second compound 3 µM, first compound 0.0316 µM
[6] = second compound 3 µM, first compound 0.1 µM
[7] = second compound 9.49 µM, first compound 0.0316 µM
[8] = second compound 9.49 µM, first compound 0.1 µM
[9] = second compound 30 µM, first compound 0.0316 µM
[10] = second compound 30 µM, first compound 0.1 µM
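Note: spheroids exposed to drugs for seven days before readout.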

CC(=O)Nc1cccc(-n2c(=O)n(C3CC3)c(=O)c3c(Nc4ccc(I)cc4F)n(C)c(=O)c(C)c32)c1 + CC(C)NCC(C(=O)N1CCN(c2ncnc3c2C(C)CC3O)CC1)c1ccc(Cl)cc1
inactive: viability, T/C (second compound 0.3 µM, first compound 94.9 pM) 105% | viability, T/C (second compound 0.3 µM, first compound 0.0003 µM) 97.6% | viability, T/C (second compound 0.3 µM, first compound 0.000949 µM) 85.8% | viability, T/C (second compound 0.3 µM, first compound 0.003 µM) 74.3% | viability, T/C (second compound 0.3 µM, first compound 0.00949 µM) 70.5% | viability, T/C (second compound 0.3 µM, first compound 0.03 µM) 62.1% | viability, T/C (second compound 0.949 µM, first compound 94.9 pM) 90.4% | viability, T/C (second compound 0.949 µM, first compound 0.0003 µM) 89.7% | viability, T/C (second compound 0.949 µM, first compound 0.000949 µM) 93.9% | viability, T/C (second compound 0.949 µM, first compound 0.003 µM) 75.1% | viability, T/C (second compound 0.949 µM, first compound 0.00949 µM) 66.6% | viability, T/C (second compound 0.949 µM, first compound 0.03 µM) 62.2% | viability, T/C (second compound 3 µM, first compound 94.9 pM) 102% | viability, T/C (second compound 3 µM, first compound 0.0003 µM) 98.8% | viability, T/C (second compound 3 µM, first compound 0.000949 µM) 76.8% | viability, T/C (second compound 3 µM, first compound 0.003 µM) 77.2% | viability, T/C (second compound 3 µM, first compound 0.00949 µM) 72.9% | viability, T/C (second compound 3 µM, first compound 0.03 µM) 61% | viability, T/C (second compound 9.49 µM, first compound 94.9 pM) 88.7% | viability, T/C (second compound 9.49 µM, first compound 0.0003 µM) 92.9% | viability, T/C (second compound 9.49 µM, first compound 0.000949 µM) 84.4% | viability, T/C (second compound 9.49 µM, first compound 0.003 µM) 80.5% | viability, T/C (second compound 9.49 µM, first compound 0.00949 µM) 66.9% | viability, T/C (second compound 9.49 µM, first compound 0.03 µM) 55.1% | viability, T/C (second compound 30 µM, first compound 94.9 pM) 89% | viability, T/C (second compound 30 µM, first compound 0.0003 µM) 91.8% | viability, T/C (second compound 30 µM, first compound 0.000949 µM) 81.7% | viability, T/C (second compound 30 µM, first compound 0.003 µM) 73.5% | viability, T/C (second compound 30 µM, first compound 0.00949 µM) 69.2% | viability, T/C (second compound 30 µM, first compound 0.03 µM) 54.8%
> 30 nM: IC50 (second compound 0.3 µM) | IC50 (second compound 0.949 µM) | IC50 (second compound 3 µM) | IC50 (second compound 9.49 µM) | IC50 (second compound 30 µM)

CC(C)CC(NC(=O)CNC(=O)c1cc(Cl)ccc1Cl)B1OC(=O)CC(CC(=O)O)(C(=O)O)O1 (stereo not given) + CC(C)NCC(C(=O)N1CCN(c2ncnc3c2C(C)CC3O)CC1)c1ccc(Cl)cc1
inactive: viability, T/C (second compound 0.3 µM, first compound 0.000316 µM) 98.8% | viability, T/C (second compound 0.3 µM, first compound 0.001 µM) 105% | viability, T/C (second compound 0.3 µM, first compound 0.00316 µM) 96% | viability, T/C (second compound 0.3 µM, first compound 0.01 µM) 94.4% | viability, T/C [1] 79.7% | viability, T/C [2] 57.7% | viability, T/C (second compound 0.949 µM, first compound 0.000316 µM) 117% | viability, T/C (second compound 0.949 µM, first compound 0.001 µM) 107% | viability, T/C (second compound 0.949 µM, first compound 0.00316 µM) 102% | viability, T/C (second compound 0.949 µM, first compound 0.01 µM) 98.4% | viability, T/C [3] 79.6% | viability, T/C [4] 61.1% | viability, T/C (second compound 3 µM, first compound 0.000316 µM) 107% | viability, T/C (second compound 3 µM, first compound 0.001 µM) 98.8% | viability, T/C (second compound 3 µM, first compound 0.00316 µM) 88.5% | viability, T/C (second compound 3 µM, first compound 0.01 µM) 98.7% | viability, T/C [5] 75.5% | viability, T/C [6] 58.4% | viability, T/C (second compound 9.49 µM, first compound 0.000316 µM) 95.7% | viability, T/C (second compound 9.49 µM, first compound 0.001 µM) 96.7% | viability, T/C (second compound 9.49 µM, first compound 0.00316 µM) 93% | viability, T/C (second compound 9.49 µM, first compound 0.01 µM) 89% | viability, T/C [7] 70.4% | viability, T/C [8] 56.5% | viability, T/C (second compound 30 µM, first compound 0.000316 µM) 85.7% | viability, T/C (second compound 30 µM, first compound 0.001 µM) 90.5% | viability, T/C (second compound 30 µM, first compound 0.00316 µM) 87% | viability, T/C (second compound 30 µM, first compound 0.01 µM) 83.3% | viability, T/C [9] 75.3% | viability, T/C [10] 57.5%
> 100 nM: IC50 (second compound 0.3 µM) | IC50 (second compound 0.949 µM) | IC50 (second compound 3 µM) | IC50 (second compound 9.49 µM) | IC50 (second compound 30 µM)

CC(C)(C)c1nc(-c2cccc(NS(=O)(=O)c3c(F)cccc3F)c2F)c(-c2ccnc(N)n2)s1 + CC(C)NCC(C(=O)N1CCN(c2ncnc3c2C(C)CC3O)CC1)c1ccc(Cl)cc1
inactive: viability, T/C [1] 123% | viability, T/C [2] 108% | viability, T/C (second compound 0.3 µM, first compound 0.316 µM) 106% | viability, T/C (second compound 0.3 µM, first compound 1 µM) 110% | viability, T/C (second compound 0.3 µM, first compound 3.16 µM) 113% | viability, T/C (second compound 0.3 µM, first compound 10 µM) 96.3% | viability, T/C [3] 108% | viability, T/C [4] 113% | viability, T/C (second compound 0.949 µM, first compound 0.316 µM) 102% | viability, T/C (second compound 0.949 µM, first compound 1 µM) 111% | viability, T/C (second compound 0.949 µM, first compound 3.16 µM) 106% | viability, T/C (second compound 0.949 µM, first compound 10 µM) 96.2% | viability, T/C [5] 104% | viability, T/C [6] 107% | viability, T/C (second compound 3 µM, first compound 0.316 µM) 106% | viability, T/C (second compound 3 µM, first compound 1 µM) 96.9% | viability, T/C (second compound 3 µM, first compound 3.16 µM) 103% | viability, T/C (second compound 3 µM, first compound 10 µM) 93.8% | viability, T/C [7] 99.8% | viability, T/C [8] 107% | viability, T/C (second compound 9.49 µM, first compound 0.316 µM) 102% | viability, T/C (second compound 9.49 µM, first compound 1 µM) 90.5% | viability, T/C (second compound 9.49 µM, first compound 3.16 µM) 96% | viability, T/C (second compound 9.49 µM, first compound 10 µM) 99.5% | viability, T/C [9] 93.5% | viability, T/C [10] 101% | viability, T/C (second compound 30 µM, first compound 0.316 µM) 96.2% | viability, T/C (second compound 30 µM, first compound 1 µM) 99.4% | viability, T/C (second compound 30 µM, first compound 3.16 µM) 86.8% | viability, T/C (second compound 30 µM, first compound 10 µM) 94%
> 10000 nM: IC50 (second compound 0.3 µM) | IC50 (second compound 0.949 µM) | IC50 (second compound 3 µM) | IC50 (second compound 9.49 µM) | IC50 (second compound 30 µM)
